Assay results as given in patent US8173682B2, “Substituted pyridones as inhibitors of poly(ADP-ribose) polymerase (PARP)” (Aventis Pharmaceuticals Inc., priority 2004, dated 2012).

biological target: recombinantly expressed human PARP-1 enzyme (Homo sapiens, UniProt P09874); experiment: PARP enzyme assay, Method B (tritium-labeled NAD incorporation); type: biochemical; details: not given
Procedure: Method B: PARP Enzyme Assay:
The IC50 is determined in this method by incubating the substances to be tested with the DNA-activated, recombinantly expressed and purified PARP-1 enzyme. Specifically, various concentrations of the test substance are incubated in 50 μL of reaction solution, which contains 50 mM Tris, 5 mM MgCl2, 1 mM DTT, 200 μM NAD, 0.1 m Ci/mL tritium-labeled NAD, 0.1 mg/mL DNA, 0.1 mg/mL histones, 2 μg/mL recombinantly expressed human PARP-1 enzyme, pH=8.0, at room temperature for 1 hour. The reaction is stopped by adding 150 μL of 20% trichloroacetic acid, and the radiolabeled protein constituents are precipitated. After incubation on ice for 10 minutes, the labeled, insoluble constituents are separated off through a glass fiber filter and, after washing with 20% trichloroacetic acid three times, the radioactivity incorporated by the PARP-1 enzyme is measured by radioluminescence. Consideration of the incorporation rates determined in this way as a function of the concentration of the test substance results in IC50 as the concentration of the test substance which reduces the incorporation rate to half the maximum value attainable (incubation without inhibitor).
The IC50 (fifty percent inhibitory concentration of the test substance in a solution—expressed at micromolar (μM) concentration) measured in accordance with these procedures for the compounds of this invention are summarized in Table 1.

Chain of recombinantly expressed human PARP-1 enzyme (P09874 whole entry): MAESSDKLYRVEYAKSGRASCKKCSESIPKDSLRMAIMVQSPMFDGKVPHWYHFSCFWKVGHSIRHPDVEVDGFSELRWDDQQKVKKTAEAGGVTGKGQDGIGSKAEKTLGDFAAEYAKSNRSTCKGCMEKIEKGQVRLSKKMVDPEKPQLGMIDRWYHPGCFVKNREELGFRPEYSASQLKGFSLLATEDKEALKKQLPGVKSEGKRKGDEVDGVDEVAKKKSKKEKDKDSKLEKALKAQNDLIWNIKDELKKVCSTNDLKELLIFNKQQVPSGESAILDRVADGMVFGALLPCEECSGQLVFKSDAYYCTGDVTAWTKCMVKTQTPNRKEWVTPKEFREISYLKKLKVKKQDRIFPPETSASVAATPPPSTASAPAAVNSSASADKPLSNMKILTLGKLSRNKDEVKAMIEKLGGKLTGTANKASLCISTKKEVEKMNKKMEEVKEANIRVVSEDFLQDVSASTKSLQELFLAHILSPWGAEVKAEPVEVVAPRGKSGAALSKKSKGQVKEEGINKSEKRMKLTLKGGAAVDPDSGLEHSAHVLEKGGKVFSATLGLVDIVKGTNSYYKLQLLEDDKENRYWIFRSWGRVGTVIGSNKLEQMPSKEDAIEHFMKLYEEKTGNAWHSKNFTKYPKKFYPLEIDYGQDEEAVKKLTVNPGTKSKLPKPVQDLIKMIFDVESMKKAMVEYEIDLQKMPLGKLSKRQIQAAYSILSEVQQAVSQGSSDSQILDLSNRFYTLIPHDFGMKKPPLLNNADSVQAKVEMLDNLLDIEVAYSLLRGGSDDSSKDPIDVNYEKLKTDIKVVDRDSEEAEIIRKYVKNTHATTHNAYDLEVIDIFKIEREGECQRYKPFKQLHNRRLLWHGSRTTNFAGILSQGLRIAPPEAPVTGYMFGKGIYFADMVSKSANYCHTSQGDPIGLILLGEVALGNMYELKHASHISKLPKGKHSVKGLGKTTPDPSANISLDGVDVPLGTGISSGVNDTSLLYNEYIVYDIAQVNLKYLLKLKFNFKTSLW

| SMILES | IC50 [µM] |
| --- | --- |
| CCc1cc(-c2cncc(C(=O)N3CCC(=O)CC3)c2)c(C)[nH]c1=O [Example 234, 5-Ethyl-2-methyl-5′-(4-oxo-piperidine-1-carbonyl)-1H-[3,3′]bipyridinyl-6-one] | 2.46 |

same assay, conditions: Method B; 200 μM NAD, room temperature 1 hour, pH 8.0; read-out: IC50 (μM)/Method B

| SMILES | IC50 [µM] |
| --- | --- |
| CCc1cc(-c2cncc(C(=O)NCc3cccnc3)c2)c(C)[nH]c1=O [Example 222, 5′-Ethyl-2′-methyl-6′-oxo-1′,6′-dihydro-[3,3′]bipyridinyl-5-carboxylic acid (pyridin-3-ylmethyl)-amide] | 0.75 |
| CCCCNC(=O)c1cncc(-c2cc(CC)c(=O)[nH]c2C)c1 [Example 223, 5′-Ethyl-2′-methyl-6′-oxo-1′,6′-dihydro-[3,3′]bipyridinyl-5-carboxylic acid butylamide] | 0.92 |
| CCc1cc(-c2cncc(C(=O)NC(CC)c3ccc(C)nc3)c2)c(C)[nH]c1=O (stereo not drawn) [Example 224, 5′-Ethyl-2′-methyl-6′-oxo-1′,6′-dihydro-[3,3′]bipyridinyl-5-carboxylic acid [1-(6-methyl-pyridin-3-yl)-propyl]-amide] | 5.9 |
| CCc1cc(-c2cncc(C(=O)NCC(N)=O)c2)c(C)[nH]c1=O [Example 225, 5′-Ethyl-2′-methyl-6′-oxo-1′,6′-dihydro-[3,3′]bipyridinyl-5-carboxylic acid carbamoylmethyl-amide] | 5.5 |
| CCc1cc(-c2cncc(C(=O)N3CCCC3)c2)c(C)[nH]c1=O [Example 226, 5-Ethyl-2-methyl-5′-(pyrrolidine-1-carbonyl)-1H-[3,3′]bipyridinyl-6-one] | 0.95 |
| CCc1cc(-c2cncc(C(=O)N(CC)CC)c2)c(C)[nH]c1=O [Example 227, 5′-Ethyl-2′-methyl-6′-oxo-1′,6′-dihydro-[3,3′]bipyridinyl-5-carboxylic acid diethylamide] | 1.98 |
| CCc1cc(-c2cncc(C(=O)NC(c3cccnc3)C3CC3)c2)c(C)[nH]c1=O (stereo not drawn) [Example 228, 5′-Ethyl-2′-methyl-6′-oxo-1′,6′-dihydro-[3,3′]bipyridinyl-5-carboxylic acid (cyclopropyl-pyridin-3-yl-methyl)-amide] | 10.7 |
| CCc1cc(-c2cncc(C(=O)NC[C@H](C)O)c2)c(C)[nH]c1=O [Example 229, 5′-Ethyl-2′-methyl-6′-oxo-1′,6′-dihydro-[3,3′]bipyridinyl-5-carboxylic acid (2-hydroxy-propyl)-amide] | 4.7 |
| CCc1cc(-c2cncc(C(=O)NCCc3ccc([N+](=O)[O-])cc3)c2)c(C)[nH]c1=O [Example 230, 5′-Ethyl-2′-methyl-6′-oxo-1′,6′-dihydro-[3,3′]bipyridinyl-5-carboxylic acid [2-(4-nitro-phenyl)-ethyl]-amide] | 0.13 |
| CCc1cc(-c2cncc(C(=O)N3CC(O)CC3C(=O)OC)c2)c(C)[nH]c1=O (stereo not drawn) [Example 231, 1-(5′-Ethyl-2′-methyl-6′-oxo-1′,6′-dihydro-[3,3′]bipyridinyl-5-carbonyl)-4-hydroxy-pyrrolidine-2-carboxylic acid methyl ester] | 14.8 |
| CCc1cc(-c2cncc(C(=O)NCCc3ccccc3O)c2)c(C)[nH]c1=O [Example 232, 5′-Ethyl-2′-methyl-6′-oxo-1′,6′-dihydro-[3,3′]bipyridinyl-5-carboxylic acid [2-(2-hydroxy-phenyl)-ethyl]-amide] | 0.82 |
| CCc1cc(-c2cncc(C(=O)N(C)CC(N)=O)c2)c(C)[nH]c1=O [Example 233, 5′-Ethyl-2′-methyl-6′-oxo-1′,6′-dihydro-[3,3′]bipyridinyl-5-carboxylic acid carbamoylmethyl-methyl-amide] | 1.65 |
| CCc1cc(-c2cncc(C(=O)N(CC)Cc3ccncc3)c2)c(C)[nH]c1=O [Example 235, 5′-Ethyl-2′-methyl-6′-oxo-1′,6′-dihydro-[3,3′]bipyridinyl-5-carboxylic acid ethyl-pyridin-4-ylmethyl-amide] | 1.86 |
| CCc1cc(-c2cncc(C(=O)NCCc3ccccc3)c2)c(C)[nH]c1=O [Example 236, 5′-Ethyl-2′-methyl-6′-oxo-1′,6′-dihydro-[3,3′]bipyridinyl-5-carboxylic acid phenethyl-amide] | 0.44 |
